# Tests used:
# [1] = system: NCI-H358 cell line; experiment: Combination effect with targeted anticancer agent, cell viability (CellTiter-Glo, combination index), H358; format: cell-based; conditions: H358 cells, 7 days, Example 1 compound 0.0001 to 0.1 µM, Fig. 1
# Protocol: Test for evaluating the combination effect of targeted anticancer agent- Cell Viability
# In this experimental example, we examined whether the compound according to the present invention has a synergistic effect on cancer cell death when used in combination with a target anticancer agent related to another RAS signal transduction pathway.
# NCI-H358 cell line (ATCC catalog no. CRL-5807, USA) or EGFR exon 19 deletion cancer cell line PC-9 (Riken, Japan catalog no. RCB4455) were seeded in a well plate (500 cells per well for H358 and 50 cells per well for PC-9) in RPMI1640 (Gibco, USA catalog no. 22400-089) medium containing 10% fetal bovine serum (Excel Bio, USA catalog no. FSP500) and cultured for one day at 37°C under 5% CO2 conditions. […] Cell survival analysis was performed by luminescence analysis using the Promega CellTiter-Glo Luminescent Cell Viability Assay Kit (Promega, catalog number G7573), and luminescence was measured using a PerkinElmer 2014 EnVision plate reader. The inhibition rate was calculated from the measured relative luminescence value in the same manner as in Experimental Example 3, and the combination index (CI) between the compound of the present invention and the target anticancer agent was calculated using the following equation. […]
# [2] = system: MIA-PaCa-2; experiment: Reactive oxygen species (ROS) production assay; format: cell-based; conditions: MIA-PaCa-2 cells, 10 µM, 24 hours; Figure 3
# Protocol: Reactive oxygen species (ROS) production assay
# In this experimental example, it was examined that the compound according to the present invention has the effect of increasing reactive oxygen in tumor cells.
# MIA-PaCa-2 (Korea Cell Line Bank KCLB No. 21420), a cancer cell line harboring KRAS G12C mutation, was cultured in a cell culture medium containing RPMI1640 (Gibco, USA, catalog no. 11875-119), 10% fetal bovine serum (HyClone, USA, catalog no. SH30919.03), and 1 × diluted HyClone Antibiotic Antimycotic solution (HyClone, USA, catalog no. SV30079.01). 3 × 10^5 cells were seeded per well in a 6-well plate and cultured for 1 day at 37°C under 5% CO2 conditions. […] The cells were then collected in a microtube and analyzed for fluorescence using a BD LSRFortessa™ X-20 Cell Analyzer (BD Biosciences, USA) (excitation wavelength: 488 nm, emission wavelength: 535 nm). The fluorescence intensity due to the increase in reactive oxygen species was measured for 10,000 cells. Among the cells treated with 500 µM hydrogen peroxide, which was the positive control, the section in which the fluorescence intensity increased compared to the cells treated with the blank sample was found, and the average fluorescence intensity of the cells within this section was calculated. […]
structure (smiles),measurement,setting,value
"CNCc1ccccc1-c1c[se]c([C@@H](C)Nc2nc(C)nc3cc(OC)c(OC)cc23)c1 [Example 1, (R)-6,7-dimethoxyl-2-methyl-N-(1-(4-(2-((methylamino)methyl)phenyl)selenophen-2-yl)ethyl)quinazolin-4-amine]",synergistic effect inhibiting cell growth in combination with sotorasib,[1]; sotorasib 0.001 to 1 µM,strong synergistic effect
same,synergistic effect inhibiting cell growth in combination with trametinib,[1]; trametinib 0.001 to 0.1 µM,strong synergistic effect
same,ROS production compared to the blank sample,[2],significantly increased ROS production

# Source: patent EP4737453A1, “NOVEL SELENOPHENE DERIVATIVES” (Aigen Sciences Inc., priority 2023, dated 2025)
